Patent US20250163054A1, “SUBSTITUTED BICYCLIC HETEROARYL COMPOUNDS USEFUL AS INHIBITORS OF TLR9” (Bristol-Myers Squibb Company, priority 2022, published 2025)

What was measured:
Type in all cases: cell-based
human TLR7 = molecular target: T1, human TLR7 (Homo sapiens, UniProt Q9NYK1); assay: TLR7/8/9 Inhibition Reporter Assays (TLR7); settings: HEK-Blue cells overexpressing human TLR7, SEAP reporter, stimulated with TLR7 ligand gardiquimod
T1 construct: host or cells: HEK-Blue cells (HEK293-derived reporter line)
T1 sequence (Q9NYK1 27-1049): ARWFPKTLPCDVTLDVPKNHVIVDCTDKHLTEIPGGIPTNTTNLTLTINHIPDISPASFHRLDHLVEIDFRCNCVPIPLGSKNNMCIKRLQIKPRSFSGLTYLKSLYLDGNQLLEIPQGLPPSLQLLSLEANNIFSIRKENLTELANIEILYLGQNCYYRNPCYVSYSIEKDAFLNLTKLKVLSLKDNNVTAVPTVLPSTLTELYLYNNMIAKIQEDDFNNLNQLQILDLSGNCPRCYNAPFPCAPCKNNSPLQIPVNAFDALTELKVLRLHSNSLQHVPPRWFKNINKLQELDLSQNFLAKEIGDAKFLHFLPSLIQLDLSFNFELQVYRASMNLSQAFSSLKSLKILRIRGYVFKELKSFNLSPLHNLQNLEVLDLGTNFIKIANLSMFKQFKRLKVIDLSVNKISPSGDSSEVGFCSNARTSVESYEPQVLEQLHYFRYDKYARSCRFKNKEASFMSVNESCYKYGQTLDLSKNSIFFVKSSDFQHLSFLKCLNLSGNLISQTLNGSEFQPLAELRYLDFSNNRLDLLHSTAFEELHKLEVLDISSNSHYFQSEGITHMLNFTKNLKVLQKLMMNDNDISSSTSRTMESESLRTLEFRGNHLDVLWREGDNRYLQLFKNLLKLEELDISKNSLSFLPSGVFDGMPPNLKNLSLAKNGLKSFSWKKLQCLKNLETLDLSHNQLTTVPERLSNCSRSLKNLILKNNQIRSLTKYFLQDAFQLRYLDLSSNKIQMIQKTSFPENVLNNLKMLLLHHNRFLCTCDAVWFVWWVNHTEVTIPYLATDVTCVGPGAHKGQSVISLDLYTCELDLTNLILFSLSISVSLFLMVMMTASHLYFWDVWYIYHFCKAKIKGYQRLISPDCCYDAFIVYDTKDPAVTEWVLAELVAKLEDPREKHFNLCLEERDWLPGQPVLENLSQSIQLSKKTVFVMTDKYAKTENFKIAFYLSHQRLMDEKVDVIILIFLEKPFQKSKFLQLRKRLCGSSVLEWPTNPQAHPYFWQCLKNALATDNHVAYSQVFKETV
How it was run: (§1)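 HEK-Blue cells overexpressing human TLR7, TLR8 or TLR9 with NF-κB/AP-1-driven SEAP reporter, pre-treated 60 min with compound ([…]). Stimulated with […] (TLR7), […] (TLR8) or ODN2006 200 nM (TLR9), then 22 h at 37° C; SEAP measured, % inhibition relative to agonist-plus-DMSO and known-inhibitor wells.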

human TLR9 = molecular target: T2, human TLR9 (Homo sapiens, UniProt Q9NR96); assay: TLR7/8/9 Inhibition Reporter Assays (TLR9); settings: HEK-Blue cells overexpressing human TLR9, SEAP reporter, stimulated with TLR9 ligand ODN2006
T2 construct: host or cells: HEK-Blue cells (HEK293-derived reporter line)
T2 sequence (Q9NR96 26-1032): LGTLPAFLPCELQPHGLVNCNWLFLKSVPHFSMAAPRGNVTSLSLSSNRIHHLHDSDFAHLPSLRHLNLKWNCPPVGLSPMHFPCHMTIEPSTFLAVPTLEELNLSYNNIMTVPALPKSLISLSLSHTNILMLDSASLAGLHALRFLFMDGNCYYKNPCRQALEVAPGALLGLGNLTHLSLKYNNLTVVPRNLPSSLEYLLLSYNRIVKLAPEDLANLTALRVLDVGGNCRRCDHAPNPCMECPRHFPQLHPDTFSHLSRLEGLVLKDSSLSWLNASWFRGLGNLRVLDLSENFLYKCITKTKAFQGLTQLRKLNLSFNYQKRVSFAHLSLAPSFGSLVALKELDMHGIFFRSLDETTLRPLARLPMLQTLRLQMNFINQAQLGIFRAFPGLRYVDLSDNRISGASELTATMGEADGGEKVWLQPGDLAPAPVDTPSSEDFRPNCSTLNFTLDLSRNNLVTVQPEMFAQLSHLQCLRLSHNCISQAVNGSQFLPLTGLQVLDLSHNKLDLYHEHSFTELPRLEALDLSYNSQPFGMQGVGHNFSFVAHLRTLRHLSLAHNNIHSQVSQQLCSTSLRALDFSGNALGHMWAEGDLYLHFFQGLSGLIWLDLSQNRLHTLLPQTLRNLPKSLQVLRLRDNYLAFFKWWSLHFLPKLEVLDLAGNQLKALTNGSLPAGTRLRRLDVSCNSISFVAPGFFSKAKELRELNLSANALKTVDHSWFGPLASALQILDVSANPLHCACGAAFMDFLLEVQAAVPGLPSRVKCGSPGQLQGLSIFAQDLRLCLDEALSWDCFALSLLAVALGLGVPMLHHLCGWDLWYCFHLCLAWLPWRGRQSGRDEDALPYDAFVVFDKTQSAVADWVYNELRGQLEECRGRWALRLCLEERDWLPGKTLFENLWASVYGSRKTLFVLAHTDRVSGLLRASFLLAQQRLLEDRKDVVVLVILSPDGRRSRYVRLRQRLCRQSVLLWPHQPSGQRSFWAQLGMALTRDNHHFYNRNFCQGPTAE
How it was run: as §1

human TLR8 = molecular target: T3, human TLR8 (Homo sapiens, UniProt Q9NR97); assay: TLR7/8/9 Inhibition Reporter Assays (TLR8); settings: HEK-Blue cells overexpressing human TLR8, SEAP reporter, stimulated with TLR8 ligand R848
T3 construct: host or cells: HEK-Blue cells (HEK293-derived reporter line)
T3 sequence (Q9NR97 27-1041): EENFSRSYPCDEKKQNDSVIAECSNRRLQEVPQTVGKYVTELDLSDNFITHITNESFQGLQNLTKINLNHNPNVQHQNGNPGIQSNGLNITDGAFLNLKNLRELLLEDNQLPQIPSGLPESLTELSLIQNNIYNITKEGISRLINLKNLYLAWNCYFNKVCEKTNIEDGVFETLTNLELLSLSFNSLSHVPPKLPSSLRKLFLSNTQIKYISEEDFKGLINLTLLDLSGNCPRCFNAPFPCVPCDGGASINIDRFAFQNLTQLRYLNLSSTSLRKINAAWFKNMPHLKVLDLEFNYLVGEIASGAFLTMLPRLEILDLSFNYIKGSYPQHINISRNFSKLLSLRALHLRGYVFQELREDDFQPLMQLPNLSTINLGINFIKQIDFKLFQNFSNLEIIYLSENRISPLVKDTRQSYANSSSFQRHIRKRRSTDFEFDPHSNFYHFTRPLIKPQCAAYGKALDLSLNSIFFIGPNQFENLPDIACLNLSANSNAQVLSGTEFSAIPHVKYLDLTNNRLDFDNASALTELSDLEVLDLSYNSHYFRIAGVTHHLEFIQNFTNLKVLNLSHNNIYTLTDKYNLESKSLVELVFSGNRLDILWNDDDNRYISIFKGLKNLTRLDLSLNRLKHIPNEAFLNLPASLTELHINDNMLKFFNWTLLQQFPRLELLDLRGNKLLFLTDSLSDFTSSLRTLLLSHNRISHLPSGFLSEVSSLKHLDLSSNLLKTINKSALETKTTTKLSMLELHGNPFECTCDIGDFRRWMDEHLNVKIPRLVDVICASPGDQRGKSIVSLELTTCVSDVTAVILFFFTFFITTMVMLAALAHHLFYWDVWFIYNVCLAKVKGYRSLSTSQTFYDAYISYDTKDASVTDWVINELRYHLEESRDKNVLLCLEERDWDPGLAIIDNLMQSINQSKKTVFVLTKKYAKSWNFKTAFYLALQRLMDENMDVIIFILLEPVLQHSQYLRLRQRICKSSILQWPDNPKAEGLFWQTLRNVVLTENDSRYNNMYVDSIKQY
How it was run: as §1

Structure (SMILES) | IC50 (human TLR7) [nM] | IC50 (human TLR9) [nM] | IC50 (human TLR8) [µM]
CS(=O)(=O)c1ccc(-c2nc3cnc(-c4ccc(N5CCN(CCCN6CCOCC6)CC5)cc4)cc3n2C2CC2)cc1 [Example 55, 4-(3-(4-(4-(1-cyclopropyl-2-(4-(methylsulfonyl)phenyl)-1H-imidazo[4,5-c]pyridin-6-yl)phenyl)piperazin-1-yl)propyl) morpholine] | 2400 | 99 | 0.64
COc1ccc(-c2nc3c(C)nc(-c4ccc(N5C[C@@H]6CN(C(C)C)C[C@@H]6C5)cc4)cc3n2C)cc1OC [Example 59, 2-(3,4-dimethoxyphenyl)-6-(4-((3aR,6aS)-5-isopropylhexahydropyrrolo[3,4-c]pyrrol-2(1H)-yl)phenyl)-1,4-dimethyl-1H-imidazo[4,5-c]pyridine] | 1700 | 24 | 21
COc1ccc(-c2nc3c(C)nc(-c4ccc(N5CCC6(CC5)CN(C(C)C)C6)cc4)cc3n2C)cc1OC [Example 60, 2-(3,4-dimethoxyphenyl)-6-(4-(2-isopropyl-2,7-diazaspiro[3.5]nonan-7-yl)phenyl)-1,4-dimethyl-1H-imidazo[4,5-c]pyridine] | 2300 | 140 | 37
COc1ccc(-c2nc3cnc(-c4ccc(N5CCC6(CC5)CN(CC(C)C)C6)cc4)cc3n2C2CC2)cc1OC [Example 61, 1-cyclopropyl-2-(3,4-dimethoxyphenyl)-6-(4-(2-isobutyl-2,7-diazaspiro[3.5]nonan-7-yl)phenyl)-1H-imidazo[4,5-c]pyridine] | 12000 | 160 | 12
CC(C)N1CC2(CCN(c3ccc(-c4cc5c(cn4)nc(-c4ccc(S(C)(=O)=O)cc4)n5C4CC4)cc3)CC2)C1 [Example 62, 1-cyclopropyl-6-(4-(2-isopropyl-2,7-diazaspiro[3.5]nonan-7-yl)phenyl)-2-(4-(methylsulfonyl)phenyl)-1H-imidazo[4,5-c]pyridine] | 5100 | 250 | 1.2
Cc1nc(-c2ccc(N3CC4(CCN(C(C)C)CC4)C3)cc2)cc2c1nc(-c1ccc(S(C)(=O)=O)cc1)n2C [Example 63, 6-(4-(7-isopropyl-2,7-diazaspiro[3.5]nonan-2-yl)phenyl)-1,4-dimethyl-2-(4-(methylsulfonyl)phenyl)-1H-imidazo[4,5-c]pyridine] | 1400 | 170 | 5.3

Results, then the compound that gave them:

IC50 (human TLR7) [nM] | IC50 (human TLR9) [nM] | IC50 (human TLR8) [µM] | Structure (SMILES)
3100 | 74 | 7.6 | Cc1nc(-c2ccc(CCN3CCC(N4CCOCC4)CC3)cc2)cc2c1nc(-c1ccc(S(C)(=O)=O)cc1)n2C [Example 53, 4-(1-(4-(1,4-dimethyl-2-(4-(methylsulfonyl)phenyl)-1H-imidazo[4,5-c]pyridin-6-yl)phenethyl)piperidin-4-yl) morpholine]
> 50000 | 240 | 9.5 | Cc1nc(-c2ccc(CN3CCC(N4CCOCC4)CC3)cc2)cc2c1nc(-c1ccc(S(C)(=O)=O)cc1)n2C [Example 54, 4-(1-(4-(1,4-dimethyl-2-(4-(methylsulfonyl)phenyl)-1H-imidazo[4,5-c]pyridin-6-yl)benzyl)piperidin-4-yl)morpholine]
> 50000 | 880 | 46 | CS(=O)(=O)c1ccc(-c2nc3cnc(-c4ccc(N5CCN(CCN6CCOCC6)CC5)cc4)cc3n2C2CC2)cc1 [Example 56, 4-(2-(4-(4-(1-cyclopropyl-2-(4-(methylsulfonyl)phenyl)-1H-imidazo[4,5-c]pyridin-6-yl)phenyl)piperazin-1-yl)ethyl)morpholine]
4000 | 150 | 4.8 | Cc1nc(-c2ccc(N3CC4(CN(CC(C)C)C4)C3)cc2)cc2c1nc(-c1ccc(S(C)(=O)=O)cc1)n2C [Example 57, 6-(4-(6-isobutyl-2,6-diazaspiro[3.3]heptan-2-yl)phenyl)-1,4-dimethyl-2-(4-(methylsulfonyl)phenyl)-1H-imidazo[4,5-c]pyridine]
1300 | 89 | > 50 | COc1ccc(-c2nc3c(C)nc(-c4ccc(N5CC6(CN(CC(C)(C)O)C6)C5)cc4)cc3n2C)cc1OC [Example 58, 1-(6-(4-(2-(3,4-dimethoxyphenyl)-1,4-dimethyl-1H-imidazo[4,5-c]pyridin-6-yl)phenyl)-2,6-diazaspiro[3.3]heptan-2-yl)-2-methylpropan-2-ol]
2800 | 220 | 0.79 | CC(C)N1CC2(CCN(c3ccc(-c4cc5c(cn4)nc(-c4ccc(S(C)(=O)=O)cc4)n5C)cc3)C2)C1 [Example 64, 6-(4-(2-isopropyl-2,6-diazaspiro[3.4]octan-6-yl)phenyl)-1-methyl-2-(4-(methylsulfonyl)phenyl)-1H-imidazo[4,5-c]pyridine]
